# Test system: CD33-specific CAR transduced T cells co-cultured with THP-1 cells
# Experiment: T cell cytokine production in co-culture of CD33-specific CAR-T cells with THP-1 cells
# Assay type: cell-based, human
# Details: 5 μM AR-C
# Protocol: FIG. 8. Effects of P2RY2 antagonist on T cells and cancer cells in T cell-cancer cell co-cultures. T cells transduced with CD33-specific CAR (CAR-T) were co-cultured with genetically edited THP-1 cells in the absence or presence of 5 μM AR-C 118925XX (AR-C) for 6-24 hours. Control cells: THP-1 cells transduced with non-targeting sgRNA and Cas9 (gNT); P2RY2 deficient cells: THP-1 cells transduced with P2RY2-targeting sgRNA and Cas9 (gP2RY2-3, gP2RY2-4); B7-H3 (CD276) deficient cells: THP-1 cells transduced with B7-H3-targeting sgRNA and Cas9 (gCD276-1); P2RY2 and B7-H3 double deficient cells: THP-1 cells transduced with P2RY2-targeting sgRNA, B7-H3-targeting sgRNA, and Cas9 (gCD276-1 gP2RY2-3 DKO, gCD276-1 gP2RY2-4 DKO); P2RY2 overexpression cells: THP-1 cells transduced with the open reading frame of P2RY2 (P2RY2-OE); B7-H3 overexpression cells: THP-1 cells transduced with the open reading frame of CD276 (CD276-OE). Transduced cancer cells were selected by antibiotics according to antibiotic resistance genes carried by the lentiviral constructs. Flow cytometry analysis of expression of production of IFNγ and TNFα within the CD3+CD8+ cell population is shown (values indicate the percentages of positive cells). For the viability of THP-1 cells, normalized cell counts of viable cells after co-culture with CD33-specific CAR-T cells is shown. The end-point cell counts were normalized to the number of THP-1 cells in cultures without T cells.
# MART-1 specific T cells were generated as described (Mezzadra et al., Nature 549, 106-110 (2017); Jorritsma et al., Blood 110 (10): 3564-3572. (2007)). […]
# The open reading frames of transcripts of P2RY2(ENST00000393597.7) or CD276(ENST00000318443.10), were ordered as a codon optimized gBlock Gene Fragment (Integrated DNA Technologies or Twist Bioscience) and cloned into a lentiviral vector containing a blasticidin selection cassette. […]
# MART1-specific CD8+ T cells and MART1 epitope-expressing cancer cells were mixed at a ratio of 1:16 to 1:4. […] T cell activation was assessed by surface staining with anti-CD137-BV421 (4-1BB, Biolegend), anti-CD69-APC/Fire™ 750 (FN50, Biolegend), anti-CD25-AF700 (BC96, Biolegend) antibodies and intracellular staining with anti-IL-2-PE/Cy7 (MQ1-17H12, Biolegend), anti-IFN-7-BV421 (4S.B3, Biolegend), anti-TNF-α-BV785 (MAb11, Biolegend) antibodies, followed by flow cytometry analysis. […] The viability of cancer cells that grow in suspension including THP-1 cells was assessed by flow cytometry-based absolute cell counting using AccuCount beads (Spherotech). For adherent cancer cells including BxPC3 and MCF7, the cell viability was quantified using CellTiter-Blue Cell Viability Assay (Promega).
# [1] = 6-24 hours, P2RY2 proficient THP-1 cells, CD3+CD8+ population (FIG. 8)
# [2] = P2RY2 deficient THP-1 cells (FIG. 8)
compound,measurement,setting,value
Cc1ccc2c(c1)C=Cc1cc(C)ccc1C2c1cn(Cc2ccc(C(=O)Nc3nn[nH]n3)o2)c(=O)[nH]c1=S [AR-C 118925XX],production of IFNγ by T cells,[1],increased
same,production of TNFα by T cells,[1],increased
same,production of IFNγ in T cell upon P2RY2 deletion,[2],does not influence
same,production of TNFα in T cell upon P2RY2 deletion,[2],does not influence
